These results are taken from BindingDB's records for doi:10.1021/jm00032a002 (Merck Sharp and Dohme Research Laboratories, 1994).

For the assay, the target named is Gastrin/cholecystokinin type B receptor (Cavia porcellus). Put plainly: Binding activity against Cholecystokinin type B receptor from guinea pig cortex using [125]BH CCK-8s as radioligand.

The molecule `Cc1cccc(NC(=O)NC2N=C(N3CCCCC3)c3ccccc3N(C)C2=O)c1` (stereo unspecified) [1-(1-Methyl-2-oxo-5-piperidin-1-yl-2,3-dihydro-1H-benzo[e][1,4]diazepin-3-yl)-3-m-tolyl-urea] gave an IC50 of 5.7 nM. In other words, the single-digit nanomolar range.
